Reference: publication PMC3985611 (Chemistry & biology, 2013)

Target: Hsp70 (Homo sapiens, UniProt P0DMV8)
Assay: competition of YK5-biotin pull-down in cancer cells
Type: cell-based

Hsp70, sequence (P0DMV8 2-641): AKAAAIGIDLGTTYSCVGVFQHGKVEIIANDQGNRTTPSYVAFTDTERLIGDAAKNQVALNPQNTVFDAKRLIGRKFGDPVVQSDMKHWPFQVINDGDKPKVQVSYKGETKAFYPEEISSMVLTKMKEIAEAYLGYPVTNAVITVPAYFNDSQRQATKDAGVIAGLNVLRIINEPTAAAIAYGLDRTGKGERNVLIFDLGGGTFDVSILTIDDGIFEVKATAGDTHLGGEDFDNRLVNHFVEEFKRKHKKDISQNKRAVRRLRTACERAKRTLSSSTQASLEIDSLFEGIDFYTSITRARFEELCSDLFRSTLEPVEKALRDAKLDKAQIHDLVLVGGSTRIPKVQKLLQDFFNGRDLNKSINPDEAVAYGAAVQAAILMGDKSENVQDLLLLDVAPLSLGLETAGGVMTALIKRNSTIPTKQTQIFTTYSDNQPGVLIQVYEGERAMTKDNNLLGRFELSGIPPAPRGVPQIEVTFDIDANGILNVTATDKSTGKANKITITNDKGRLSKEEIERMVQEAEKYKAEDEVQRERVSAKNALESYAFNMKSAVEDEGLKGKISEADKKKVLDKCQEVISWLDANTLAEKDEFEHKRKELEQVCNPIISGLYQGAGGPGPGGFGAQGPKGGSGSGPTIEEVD

C=CC(=O)Nc1cc(N)nc(Sc2c(OC)nc(N3CCN(C)CC3)nc2OC)n1 [YK5]
IC50: ~7 µM
